{
  "source": "paper PMC11428215",
  "about": "“Unveiling a New Antimicrobial Peptide with Efficacy against P. aeruginosa and K. pneumoniae from Mangrove-Derived Paenibacillus thiaminolyticus NNS5-6 and Genomic Analysis” (Antibiotics, 2024)",
  "key": {"P. aeruginosa TISTR 357 [1]": {"tested_on": "P. aeruginosa TISTR 357", "experiment": "Compatibility with surfactants, residual antibacterial activity", "assay_type": "physicochemical, Pseudomonas aeruginosa", "settings": "AMP 16 µg/mL, agar well diffusion read-out, % of non-treated AMP, mean ± SD, n = 3", "method": "(§1) The AMP was dissolved in sterile purified water and adjusted a final concentration to 16 µg/mL. The sensitivity of the AMP to temperatures of 37, 40, 50, 60, 80, and 100 °C, as well as autoclaving at 121 °C for 15 and 30 min was evaluated. The sensitivity of the AMP to proteolytic enzymes with different digesting characteristics was studied by incubating with a concentration of 1 mg/mL of proteinase K, trypsin, and α-chymotrypsin (Sigma-Aldrich, Warren, MI, USA). The compatibility of the AMP with surfactants was evaluated by exposing the AMP to 1% SDS or 1% Triton X-100 (AppliChem GmbH, Darmstadt, Germany). The degradation of the AMP under various pH conditions, including physiological and extended alkaline conditions, was evaluated by adjusting the pH of the solution to 1.2, 4.5, 6.8, 7.4, 8.0, 10.0, 12.0, and 14.0. After incubation, the pH of the AMP solution was neutralized to the original pH before being assessed for antibacterial activity. The antibacterial assay against P. aeruginosa TISTR 357 was conducted using the agar well diffusion assay in triplicate. The stability profiles are presented as the percentage of the residual activity compared with the non-treatment conditions (mean ± SD), and statistical significance was determined by the Student’s t-test at a p-value < 0.05."}, "P. aeruginosa TISTR 357 [2]": {"tested_on": "P. aeruginosa TISTR 357", "experiment": "Stability against pH, residual antibacterial activity", "assay_type": "physicochemical, Pseudomonas aeruginosa", "settings": "neutralized before assay, AMP 16 µg/mL, agar well diffusion read-out, % of non-treated AMP, mean ± SD, n = 3", "method": "as §1"}, "Proteinase K": {"target": "Proteinase K (Parengyodontium album, UniProt P06873)", "sequence (P06873 106-384)": "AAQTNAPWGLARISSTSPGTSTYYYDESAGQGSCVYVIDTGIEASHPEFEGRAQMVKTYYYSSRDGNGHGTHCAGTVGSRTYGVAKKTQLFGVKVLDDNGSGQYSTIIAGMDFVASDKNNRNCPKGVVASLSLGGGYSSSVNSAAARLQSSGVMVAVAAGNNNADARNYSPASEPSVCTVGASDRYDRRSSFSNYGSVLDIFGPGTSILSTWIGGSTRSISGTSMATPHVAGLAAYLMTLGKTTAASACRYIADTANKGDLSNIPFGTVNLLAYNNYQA", "settings": "Proteinase K 1 mg/mL, AMP 16 µg/mL, agar well diffusion read-out, % of non-treated AMP, mean ± SD, n = 3", "method": "as §1"}, "α-chymotrypsin": {"target": "α-chymotrypsin (Bos taurus, UniProt P00766)", "settings": "α-chymotrypsin 1 mg/mL, AMP 16 µg/mL, agar well diffusion read-out, % of non-treated AMP, mean ± SD, n = 3", "method": "as §1"}},
  "note": "Like-named read-outs stand apart in the source and are kept apart here. No end group written: not given here.",
  "data": [
    {"sequence": "VKGDGGPGTVYTM [NNS5-6 AMP]", "values": [
      {"measurement": "% Residual Activity of NNS5-6 AMP against P. aeruginosa TISTR 357", "setting": "P. aeruginosa TISTR 357 [1]; with 1% SDS, 12 h", "result": "119.19 ± 1.53", "unit": "%"},
      {"measurement": "% Residual Activity of NNS5-6 AMP against P. aeruginosa TISTR 357", "setting": "P. aeruginosa TISTR 357 [1]; with 1% Triton X-100, 1 h", "result": "116.17 ± 0.60", "unit": "%"},
      {"measurement": "% Residual Activity of NNS5-6 AMP against P. aeruginosa TISTR 357", "setting": "P. aeruginosa TISTR 357 [1]; with 1% Triton X-100, 6 h", "result": "120.28 ± 1.53", "unit": "%"},
      {"measurement": "% Residual Activity of NNS5-6 AMP against P. aeruginosa TISTR 357", "setting": "P. aeruginosa TISTR 357 [1]; with 1% Triton X-100, 12 h", "result": "120.81 ± 1.53", "unit": "%"},
      {"measurement": "% Residual Activity of NNS5-6 AMP against P. aeruginosa TISTR 357", "setting": "P. aeruginosa TISTR 357 [2]; pH 1.2, 1 h", "result": "89.62 ± 1.85", "unit": "%"},
      {"measurement": "% Residual Activity of NNS5-6 AMP against P. aeruginosa TISTR 357", "setting": "P. aeruginosa TISTR 357 [2]; pH 1.2, 6 h", "result": "83.83 ± 1.72", "unit": "%"},
      {"measurement": "% Residual Activity of NNS5-6 AMP against P. aeruginosa TISTR 357", "setting": "P. aeruginosa TISTR 357 [2]; pH 1.2, 12 h", "result": "81.14 ± 1.71", "unit": "%"},
      {"measurement": "% Residual Activity of NNS5-6 AMP against P. aeruginosa TISTR 357", "setting": "P. aeruginosa TISTR 357 [2]; pH 4.5, 1 h", "result": "97.31 ± 0.33", "unit": "%"},
      {"measurement": "% Residual Activity of NNS5-6 AMP against P. aeruginosa TISTR 357", "setting": "P. aeruginosa TISTR 357 [2]; pH 4.5, 6 h", "result": "95.69 ± 1.75", "unit": "%"},
      {"measurement": "% Residual Activity of NNS5-6 AMP against P. aeruginosa TISTR 357", "setting": "P. aeruginosa TISTR 357 [2]; pH 4.5, 12 h", "result": "95.62 ± 1.19", "unit": "%"},
      {"measurement": "% Residual Activity of NNS5-6 AMP against P. aeruginosa TISTR 357", "setting": "P. aeruginosa TISTR 357 [2]; pH 6.8, 1 h", "result": "97.31 ± 3.33", "unit": "%"},
      {"measurement": "% Residual Activity of NNS5-6 AMP against P. aeruginosa TISTR 357", "setting": "P. aeruginosa TISTR 357 [2]; pH 6.8, 6 h", "result": "96.46 ± 0.57", "unit": "%"},
      {"measurement": "% Residual Activity of NNS5-6 AMP against P. aeruginosa TISTR 357", "setting": "P. aeruginosa TISTR 357 [2]; pH 6.8, 12 h", "result": "96.00 ± 0.57", "unit": "%"},
      {"measurement": "% Residual Activity of NNS5-6 AMP against P. aeruginosa TISTR 357", "setting": "P. aeruginosa TISTR 357 [2]; pH 7.4, 1 h", "result": "98.65 ± 0.58", "unit": "%"},
      {"measurement": "% Residual Activity of NNS5-6 AMP against P. aeruginosa TISTR 357", "setting": "P. aeruginosa TISTR 357 [2]; pH 7.4, 6 h", "result": "98.18 ± 1.15", "unit": "%"},
      {"measurement": "% Residual Activity of NNS5-6 AMP against P. aeruginosa TISTR 357", "setting": "P. aeruginosa TISTR 357 [2]; pH 7.4, 12 h", "result": "98.48 ± 0.66", "unit": "%"},
      {"measurement": "% Residual Activity of NNS5-6 AMP against P. aeruginosa TISTR 357", "setting": "P. aeruginosa TISTR 357 [2]; pH 8.0, 1 h", "result": "99.23 ± 1.15", "unit": "%"},
      {"measurement": "% Residual Activity of NNS5-6 AMP against P. aeruginosa TISTR 357", "setting": "P. aeruginosa TISTR 357 [2]; pH 8.0, 6 h", "result": "97.22 ± 0.98", "unit": "%"},
      {"measurement": "% Residual Activity of NNS5-6 AMP against P. aeruginosa TISTR 357", "setting": "P. aeruginosa TISTR 357 [2]; pH 8.0, 12 h", "result": "98.48 ± 0.87", "unit": "%"},
      {"measurement": "% Residual Activity of NNS5-6 AMP against P. aeruginosa TISTR 357", "setting": "P. aeruginosa TISTR 357 [2]; pH 10.0, 1 h", "result": "98.85 ± 1.20", "unit": "%"},
      {"measurement": "% Residual Activity of NNS5-6 AMP against P. aeruginosa TISTR 357", "setting": "P. aeruginosa TISTR 357 [2]; pH 10.0, 6 h", "result": "97.42 ± 0.82", "unit": "%"},
      {"measurement": "% Residual Activity of NNS5-6 AMP against P. aeruginosa TISTR 357", "setting": "P. aeruginosa TISTR 357 [2]; pH 10.0, 12 h", "result": "98.10 ± 1.44", "unit": "%"},
      {"measurement": "% Residual Activity of NNS5-6 AMP against P. aeruginosa TISTR 357", "setting": "P. aeruginosa TISTR 357 [2]; pH 12.0, 1 h", "result": "94.31 ± 0.68", "unit": "%"},
      {"measurement": "% Residual Activity of NNS5-6 AMP against P. aeruginosa TISTR 357", "setting": "P. aeruginosa TISTR 357 [2]; pH 12.0, 6 h", "result": "93.40 ± 0.78", "unit": "%"},
      {"measurement": "% Residual Activity of NNS5-6 AMP against P. aeruginosa TISTR 357", "setting": "P. aeruginosa TISTR 357 [2]; pH 12.0, 12 h", "result": "90.10 ± 2.38", "unit": "%"},
      {"measurement": "% Residual Activity of NNS5-6 AMP against P. aeruginosa TISTR 357", "setting": "P. aeruginosa TISTR 357 [2]; pH 14.0, 1 h", "result": "90.77 ± 0.88", "unit": "%"},
      {"measurement": "% Residual Activity of NNS5-6 AMP against P. aeruginosa TISTR 357", "setting": "P. aeruginosa TISTR 357 [2]; pH 14.0, 6 h", "result": "84.40 ± 1.15", "unit": "%"},
      {"measurement": "% Residual Activity of NNS5-6 AMP against P. aeruginosa TISTR 357", "setting": "P. aeruginosa TISTR 357 [2]; pH 14.0, 12 h", "result": "79.05 ± 1.75", "unit": "%"},
      {"measurement": "% Residual Activity of NNS5-6 AMP against P. aeruginosa TISTR 357", "setting": "Proteinase K; 1 h", "result": "96.08 ± 3.41", "unit": "%"},
      {"measurement": "% Residual Activity of NNS5-6 AMP against P. aeruginosa TISTR 357", "setting": "Proteinase K; 6 h", "result": "86.58 ± 1.22", "unit": "%"},
      {"measurement": "% Residual Activity of NNS5-6 AMP against P. aeruginosa TISTR 357", "setting": "Proteinase K; 12 h", "result": "83.62 ± 1.34", "unit": "%"},
      {"measurement": "% Residual Activity of NNS5-6 AMP against P. aeruginosa TISTR 357", "setting": "α-chymotrypsin; 1 h", "result": "99.38 ± 0.95", "unit": "%"},
      {"measurement": "% Residual Activity of NNS5-6 AMP against P. aeruginosa TISTR 357", "setting": "α-chymotrypsin; 6 h", "result": "99.42 ± 1.22", "unit": "%"},
      {"measurement": "% Residual Activity of NNS5-6 AMP against P. aeruginosa TISTR 357", "setting": "α-chymotrypsin; 12 h", "result": "98.46 ± 0.88", "unit": "%"}
    ]}
  ]
}
